ChEMBL document CHEMBL4732046, “A red-light-activated sulfonamide porphycene for highly efficient photodynamic therapy against hypoxic tumor” (Eur J Med Chem, 2021)
Active and inactive are the calls of the source. The rule behind the calls is not given here.

Assays:
B16 [1] = experiment: Induction of morphological changes in mouse B16 cells assessed as nuclear shrinkage at 200 to 400 nM incubated for 24 hrs by Hoechst 33258 staining based assay; format: functional, cell-based; conditions: dose 200-400 nM
[2] = Drug uptake in mouse B16 cells incubated for 24 hrs in presence of 2-deoxyglucose and sodium azide by mito-tracker green based confocal microscopic method; format: ADME, cell-based; conditions: b16, 24 h
B16 [3] = experiment: Antitumor activity against mouse B16 cells xenografted in C57BL/6J mouse assessed as reduction in tumor volume at high dose intratumorally once every 2 days for 2 weeks followed every dosing irradiated with 640 +/- 15 nm red LED for 4 hrs measured after 14 days treatment; format: functional, cell-based; conditions: time 14.0 day
B16 [4] = experiment: Photocytotoxicity against mouse B16 cells assessed as reduction in cell viability irradiated with 640 +/- 15 nm red LED for 4 hrs measured after 24 hrs under hypoxic condition by MTT assay; format: functional, cell-based; conditions: B16, light or radiation study
[5] = Toxicity in C57BL/6 mouse assessed as effect on lactate dehydrogenase level measured upto 14 days; conditions: in vivo, 336 h, time <=14 day
[6] = Drug uptake in mouse B16 cells mitochondria incubated for 24 hrs by mito-tracker green based confocal microscopic method; format: ADME; conditions: b16, 24 h
A-375 [7] = experiment: Photocytotoxicity against human A-375 cells assessed as reduction in cell viability irradiated with 640 +/- 15 nm red LED for 4 hrs measured after 24 hrs under hypoxic condition by MTT assay; format: functional, cell-based; conditions: A-375, light or radiation study
B16 [8] = experiment: Antiproliferative activity against mouse B16 cells assessed as inhibition of cell proliferation irradiated with 640 +/- 15 nm red LED for 4 hrs in presence of 30 uM D-mannitol measured after 24 hrs by MTT assay; format: functional, cell-based
[9] = Toxicity in C57BL/6 mouse assessed as effect on alanine aminotransferase level measured after 2 days; conditions: in vivo, 48 h, time 2 day
[10] = Toxicity in BALB/c mouse xenografted with human A-375 cells assessed as body weight at 50 uM, IT once every 2 days for 2 weeks followed every dosing irradiated with 640 +/- 15 nm red LED for 4 hrs; conditions: in vivo, other, 336 h
[11] = Drug uptake in human A-375 cells incubated for 24 hrs in presence of 2-deoxyglucose and sodium azide by mito-tracker green based confocal microscopic method; format: ADME, cell-based; conditions: a-375, 24 h
A-375 [12] = experiment: Induction of apoptosis in human A-375 cells assessed as increase in cytochrome c level at 100 to 300 nM irradiated with 640 +/- 15 nm red LED for 1 hrs measured after 24 hrs by Western blot analysis; format: functional, cell-based; conditions: dose 100-300 nM
[13] = Toxicity in C57BL/6 mouse model assessed as effect on liver treated intratumorally once every 2 days for 2 weeks followed every dosing irradiated with 640 +/- 15 nm red LED for 4 hrs measured upto 28 days by H and E staining dependent light microscopy based histopathological analysis; format: tissue-based; conditions: in vivo, other, time <=28 day
A-375 [14] = experiment: Induction of apoptosis in human A-375 cells assessed as increase in cleaved caspase 3 level at 100 to 300 nM irradiated with 640 +/- 15 nm red LED for 1 hrs measured after 24 hrs by Western blot analysis; format: functional, cell-based; conditions: dose 100-300 nM
B16 [15] = experiment: Antitumor activity against mouse B16 cells xenografted in C57BL/6J mouse assessed as tumor growth inhibition at high dose intratumorally once every 2 days for 2 weeks followed every dosing irradiated with 640 +/- 15 nm red LED for 4 hrs measured after 14 days treatment; format: functional, cell-based; conditions: time 14.0 day
A-375 [16] = experiment: Antitumor activity against human A-375 cells xenografted in BALB/c mouse assessed as tumor growth inhibition at 50 uM, IT once every 2 days for 2 weeks followed every dosing irradiated with 640 +/- 15 nm red LED for 4 hrs; format: functional, cell-based
[17] = Toxicity in C57BL/6 mouse model assessed as effect on heart treated intratumorally once every 2 days for 2 weeks followed every dosing irradiated with 640 +/- 15 nm red LED for 4 hrs measured upto 28 days by H and E staining dependent light microscopy based histopathological analysis; format: tissue-based; conditions: in vivo, other, time <=28 day
B16 [18] = experiment: Antitumor activity against mouse B16 cells xenografted in C57BL/6 mouse assessed as tumor growth inhibition by measuring nuclear pyknosis treated at high dose intratumorally once every 2 days for 2 weeks followed every dosing irradiated with 640 +/- 15 nm red LED for 4 hrs measured after 14 days treatment; format: functional, cell-based; conditions: time 14.0 day
B16 [19] = experiment: Induction of apoptosis in mouse B16 cells assessed as increase in cleaved caspase 9 level at 200 to 400 nM irradiated with 640 +/- 15 nm red LED for 1 hrs measured after 24 hrs by Western blot analysis; format: functional, cell-based; conditions: dose 200-400 nM
A-375 [20] = experiment: Antitumor activity against human A-375 cells xenografted in BALB/c mouse assessed as tumor growth inhibition by measuring nuclear pyknosis treated at high dose intratumorally once every 2 days for 2 weeks followed every dosing irradiated with 640 +/- 15 nm red LED for 4 hrs measured after 14 days treatment; format: functional, cell-based; conditions: time 14.0 day
HeLa = experiment: Photocytotoxicity against human HeLa cells assessed as reduction in cell viability irradiated with 640 +/- 15 nm red LED for 4 hrs measured after 24 hrs by MTT assay; format: functional, cell-based; conditions: light or radiation study
B16 [21] = experiment: Induction of apoptosis in mouse B16 cells assessed as decrease in Bcl2 level at 200 to 400 nM irradiated with 640 +/- 15 nm red LED for 1 hrs measured after 24 hrs by Western blot analysis; format: functional, cell-based; conditions: dose 200-400 nM
A-375 [22] = experiment: Antiproliferative activity against human A-375 cells assessed as inhibition of cell proliferation irradiated with 640 +/- 15 nm red LED for 4 hrs in presence of 30 uM D-mannitol measured after 24 hrs under hypoxic condition by MTT assay; format: functional, cell-based
B16 [23] = experiment: Induction of intracellular reactive oxygen species production in mouse B16 cells irradiated with 640 +/- 15 nm red LED for 1 hrs measured after 4 hrs by DCFH-DA probe based flow cytometry; format: functional, cell-based; conditions: dose nM <=400, time 4.0 hrs
B16 [24] = experiment: Induction of apoptosis in mouse B16 cells assessed as increase in cleaved caspase 3 level at 200 to 400 nM irradiated with 640 +/- 15 nm red LED for 1 hrs measured after 24 hrs by Western blot analysis; format: functional, cell-based; conditions: dose 200-400 nM
[25] = Drug uptake in human A-375 cells upto 2 hrs by flow cytometric analysis; format: ADME, cell-based; conditions: a-375, 2 h
A-375 [26] = experiment: Induction of apoptosis in human A-375 cells assessed as decrease in Bcl2 level at 100 to 300 nM irradiated with 640 +/- 15 nm red LED for 1 hrs measured after 24 hrs by Western blot analysis; format: functional, cell-based; conditions: dose 100-300 nM
B16 [27] = experiment: Induction of apoptosis in mouse B16 cells assessed as increase in cytochrome c level at 200 to 400 nM irradiated with 640 +/- 15 nm red LED for 1 hrs measured after 24 hrs by Western blot analysis; format: functional, cell-based; conditions: dose 200-400 nM
A-375 [28] = experiment: Induction of apoptosis in human A-375 cells assessed as increase in Bax level at 100 to 300 nM irradiated with 640 +/- 15 nm red LED for 1 hrs measured after 24 hrs by Western blot analysis; format: functional, cell-based; conditions: dose 100-300 nM
B16 [29] = experiment: Induction of intracellular reactive oxygen species production in mouse B16 cells assessed as […] membrane damage at 200 nM irradiated with 640 +/- 15 nm red LED for 1 hr measured after 4 hrs by mito-tracker green based confocal microscopic method; format: functional, cell-based
KYSE-70 cell line = experiment: Photocytotoxicity against human KYSE-70 cells assessed as reduction in cell viability irradiated with 640 +/- 15 nm red LED for 4 hrs measured after 24 hrs under hypoxic condition by MTT assay; format: functional, cell-based; conditions: KYSE-70, light or radiation study

## CC(C)(C)C1=Cc2nc1ccc1[nH]c(cc1S(=O)(=O)NCCOCCO)c1nc(ccc3[nH]c2cc3C(C)(C)C)C(C(C)(C)C)=C1
B16 [1]
  Activity: Active
[2]
  Drug uptake: Not Active
B16 [3]
  Activity: Active
B16 [4]
  DC50: 360 nM
[5]
  Activity: Non-Toxic
[6]
  Drug uptake: Active
A-375 [7]
  DC50: 324 nM
B16 [8]
  Activity: inactive
[9]
  Activity: Toxic
[10]
  Activity: Non-Toxic
[11]
  Drug uptake: Not Active
A-375 [12]
  Activity: Active
[13]
  Activity: Non-Toxic
A-375 [14]
  Activity: Active
B16 [15]
  Activity: Active
A-375 [16]
  Activity: Active
[17]
  Activity: Non-Toxic
B16 [18]
  Activity: Active
B16 [19]
  Activity: Active
A-375 [20]
  Activity: Active
HeLa
  DC50: 15 nM
B16 [21]
  Activity: Active
A-375 [22]
  Activity: inactive
B16 [23]
  Activity: Dose-dependent effect
B16 [24]
  Activity: Active
[25]
  Drug uptake: Active
A-375 [26]
  Activity: Active
B16 [27]
  Activity: Active
A-375 [28]
  Activity: Active
B16 [29]
  Activity: Active
KYSE-70 cell line
  DC50: 51 nM
